Numbers after ± are expanded uncertainties.
Assays:
[1] = xn = mol fraction of the nth substance listed; conditions: 298.15 K, 101.3 kPa, Liquid, Vibrating tube method
[2] = 298.15 K; 101.33 kPa; Liquid; Vibrating tube method

## CCCC[N+]1(C)CCCC1.O=S(=O)([N-]S(=O)(=O)C(F)(F)F)C(F)(F)F + CCCCCCCC
[1]; x2 = 0.042
  mass density: 1384.07 ± 4.5 kg/m3

## CCCC[N+]1(C)CCCC1.O=S(=O)([N-]S(=O)(=O)C(F)(F)F)C(F)(F)F + CCCCCCCCCC
[1]; x2 = 0.023
  mass density: 1387.66 ± 4.5 kg/m3

## CCCC[N+]1(C)CCCC1.O=S(=O)([N-]S(=O)(=O)C(F)(F)F)C(F)(F)F
[2]
  mass density: 1394.68 ± 6 kg/m3

## CCCC[N+]1(C)CCCC1.O=S(=O)([N-]S(=O)(=O)C(F)(F)F)C(F)(F)F + c1ccccc1
[1]; x2 = 0.81
  mass density: 1117.76 ± 4.3 kg/m3
[1]; x2 = 0.811
  mass density: 1118.57 ± 4.3 kg/m3

— the NIST ThermoML archive (doi:10.1016/j.jct.2016.02.027)
